Laboratory results taken from US20110311485A1, “1,2,4-OXADIAZOLE DERIVATIVES AND THEIR THERAPEUTIC USE” (ALMIRALL S.A., priority 2008, published 2011).

molecular target: S1P1 receptors (Homo sapiens, UniProt P21453); experiment: 35S-GTPyS binding assay; type: biochemical; details: 35S-GTPyS binding on membranes; compound 0.1 nM-10 μM; 10 μM S1P as 100% maximum efficacy; 90 min at room temperature
Description: The effect of the compounds was measured using a 35S-GTPyS binding assay. Briefly, membranes were incubated in a buffer containing 20 mM HEPES pH 7.4, 100 mM NaCl, 10 mM MgCl2, 10 μM GDP, 50 μg/ml saponin and 0.2% fatty acid-free BSA at various concentrations (0.1 nM-10 μM) and 0.1 nM 35S-GTPyS. 10 μM S1P was used as 100% maximum efficacy. The assay was incubated for 90 min at room temperature with gentle mixing, and terminated by filtrating the reaction mixture through GF/C filter plates using the Manifold Filtration System. The filters were immediately washed with sodium phosphate pH 7.4 buffers. After drying the filter plates scintillant liquid were added to each well and 35S-GTPyS binding was measured on a Trilux Scintillation Counter.

Sequence of S1P1 receptors (P21453 whole entry): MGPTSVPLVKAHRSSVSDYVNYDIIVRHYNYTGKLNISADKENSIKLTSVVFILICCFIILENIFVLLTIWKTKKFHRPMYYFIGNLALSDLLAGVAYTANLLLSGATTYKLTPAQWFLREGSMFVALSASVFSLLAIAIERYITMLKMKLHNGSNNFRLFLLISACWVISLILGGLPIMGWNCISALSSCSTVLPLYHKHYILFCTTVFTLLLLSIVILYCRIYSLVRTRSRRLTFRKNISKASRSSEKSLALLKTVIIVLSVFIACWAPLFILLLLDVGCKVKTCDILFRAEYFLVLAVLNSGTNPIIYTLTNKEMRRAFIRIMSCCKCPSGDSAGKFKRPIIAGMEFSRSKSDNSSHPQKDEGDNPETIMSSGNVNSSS

Row | SMILES | EC50 [µM]
1 | CCc1cc(-c2noc(-c3nn(CC)c4c3CCC(C)(C)C4)n2)c(C)nc1CCN [Example 138, (2-{3-ethyl-5-[5-(1-ethyl-6,6-dimethyl-4,5,6,7-tetrahydro-1H-indazol-3-yl)-1,2,4-oxadiazol-3-yl]-6-methylpyridin-2-yl}ethyl)amine] | 0.013
2 | CC1(C)CCc2c(-c3nc(-c4ccc(C(N)=O)cc4)no3)nn(Cc3ccccc3)c2C1 [Example 21, 4-(5-(1-Benzyl-6,6-dimethyl-4,5,6,7-tetrahydro-1H-indazol-3-yl)-1,2,4-oxadiazol-3-yl)benzamide] | 0.018
3 | CCc1cc(-c2noc(-c3nn(CC(F)(F)F)c4c3CCC(C)(C)C4)n2)c(C)nc1O [Example 56, 5-(5-(6,6-Dimethyl-1-(2,2,2-trifluoroethyl)-4,5,6,7-tetrahydro-1H-indazol-3-yl)-1,2,4-oxadiazol-3-yl)-3-ethyl-6-methylpyridin-2-ol] | 0.031
4 | CCn1nc(-c2nc(-c3ccc(S(N)(=O)=O)cc3)no2)c2c1CC(C)(C)CC2 [Example 5, 4-(5-(1-Ethyl-6,6-dimethyl-4,5,6,7-tetrahydro-1H-indazol-3-yl)-1,2,4-oxadiazol-3-yl)benzenesulfonamide] | 0.04
5 | Cc1cc(-c2noc(-c3nn(C)c4c3CCC(C)(C)C4)n2)cc(C)c1CCN1CC(C(=O)O)C1 [Example 91, 1-(2,6-Dimethyl-4-(5-(1,6,6-trimethyl-4,5,6,7-tetrahydro-1H-indazol-3-yl)-1,2,4-oxadiazol-3-yl)phenethyl)azetidine-3-carboxylic Acid] | 0.016
6 | CCn1nc(-c2nc(-c3ccc(S(=O)(=O)NCCC(=O)O)c(Cl)c3)no2)c2c1CC(C)(C)CC2 [Example 97, 3-(2-Chloro-4-(5-(1-ethyl-6,6-dimethyl-4,5,6,7-tetrahydro-1H-indazol-3-yl)-1,2,4-oxadiazol-3-yl)phenylsulfonamido)propanoic Acid] | 0.026
7 | CCn1nc(-c2noc(-c3ccncc3)n2)c2c1CC(C)(C)CC2 [Example 99, 3-(1-Ethyl-6,6-dimethyl-4,5,6,7-tetrahydro-1H-indazol-3-yl)-5-(pyridin-4-yl)-1,2,4-oxadiazole] | 0.146
8 | CCn1nc(-c2nc(-c3ccc(N4CCN(CCC(=O)O)CC4)cc3)no2)c2c1CC(C)(C)CC2 [Example 8, 3-(4-(4-(5-(1-ethyl-6,6-dimethyl-4,5,6,7-tetrahydro-1H-indazol-3-yl)-1,2,4-oxadiazol-3-yl)phenyl)piperazin-1-yl)propanoic Acid] | 0.017
9 | CCn1nc(-c2nc(-c3ccncc3C)no2)c2c1CC(C)(C)CC2 [Example 36, 5-(1-Ethyl-6,6-dimethyl-4,5,6,7-tetrahydro-1H-indazol-3-yl)-3-(3-methylpyridin-4-yl)-1,2,4-oxadiazole] | 0.048
10 | CCn1nc(-c2nc(-c3ccc(CCC(=O)O)cc3C)no2)c2c1CC(C)(C)CC2 [Example 42, 3-(4-(5-(1-Ethyl-6,6-dimethyl-4,5,6,7-tetrahydro-1H-indazol-3-yl)-1,2,4-oxadiazol-3-yl)-3-methylphenyl)propanoic Acid] | 0.016
11 | Cn1nc(-c2nnc(-c3ccc(CCN4CC(C(=O)O)C4)c(C(F)(F)F)c3)s2)c2c1CC(C)(C)CC2 [Example 198, 1-(2-(trifluoromethyl)-4-(5-(1,6,6-trimethyl-4,5,6,7-tetrahydro-1H-indazol-3-yl)-1,3,4-thiadiazol-2-yl)phenethyl)azetidine-3-carboxylic Acid] | 0.012
12 | Cc1cc(-c2noc(-c3nn(C)c4c3CCC(C)(C)C4)n2)cc(C)c1CCO [Example 141, 2-{2,6-dimethyl-4-[5-(1,6,6-trimethyl-4,5,6,7-tetrahydro-1H-indazol-3-yl)-1,2,4-oxadiazol-3-yl]phenyl}ethanol] | 0.0046

Further lines, results first:

Row | EC50 [µM] | SMILES
13 | 0.0014 | Cc1cc(-c2noc(-c3nn(C)c4c3CCC(C)(C)C4)n2)cc(C)c1CCN[C@@H](C)C(=O)O [Example 146, N-(2-{2,6-dimethyl-4-[5-(1,6,6-trimethyl-4,5,6,7-tetrahydro-1H-indazol-3-yl)-1,2,4-oxadiazol-3-yl]phenyl}ethyl)-L-alanine]
14 | 0.0117 | CCn1nc(-c2nc(-c3ccc(S(=O)(=O)NCCC(=O)O)cc3C)no2)c2c1CC(C)(C)CC2 [Example 117, N-({4-[5-(1-ethyl-6,6-dimethyl-4,5,6,7-tetrahydro-1H-indazol-3-yl)-1,2,4-oxadiazol-3-yl]-3-methylphenyl}sulfonyl)-beta-alanine]
15 | 0.0036 | CCn1nc(-c2nc(-c3cc(C)c(CC(N)=O)c(C)c3)no2)c2c1CC(C)(C)CC2 [Example 137, 2-{4-[5-(1-ethyl-6,6-dimethyl-4,5,6,7-tetrahydro-1H-indazol-3-yl)-1,2,4-oxadiazol-3-yl]-2,6-dimethylphenyl}acetamide]
16 | 0.0085 | Cc1cc(-c2noc(-c3nn(C)c4c3CCC(C)(C)C4)n2)cc(C)c1CCNC(C)(C)C [Example 104, N-(2-{2,6-dimethyl-4-[5-(1,6,6-trimethyl-4,5,6,7-tetrahydro-1H-indazol-3-yl)-1,2,4-oxadiazol-3-yl]phenyl}ethyl)-2-methylpropan-2-amine]
17 | 0.00056 | CCn1nc(-c2nc(-c3ccc(CCNCC(=O)O)c(C(F)(F)F)c3)no2)c2c1CC(C)(C)CC2 [Example 162, N-{2-[4-[5-(1-ethyl-6,6-dimethyl-4,5,6,7-tetrahydro-1H-indazol-3-yl)-1,2,4-oxadiazol-3-yl]-2-(trifluoromethyl)phenyl]ethyl}glycine]
18 | 0.01 | CCn1nc(-c2nc(-c3cccc4[nH]ccc34)no2)c2c1CC(C)(C)CC2 [Example 187, 5-(1-ethyl-6,6-dimethyl-4,5,6,7-tetrahydro-1H-indazol-3-yl)-3-(1H-indol-4-yl)-1,2,4-oxadiazole]
19 | 0.008 | CCn1nc(-c2nc(-c3ccc(CCN)cc3C)no2)c2c1CC(C)(C)CC2 [Example 48, 2-(4-(5-(1-Ethyl-6,6-dimethyl-4,5,6,7-tetrahydro-1H-indazol-3-yl)-1,2,4-oxadiazol-3-yl)-3-methylphenyl)ethanamine]
20 | 0.0051 | Cc1cc(-c2noc(-c3nn(C)c4c3CCC(C)(C)C4)n2)cc(C)c1CCN1CCC(CC(=O)O)CC1 [Example 143, [1-(2-{2,6-dimethyl-4-[5-(1,6,6-trimethyl-4,5,6,7-tetrahydro-1H-indazol-3-yl)-1,2,4-oxadiazol-3-yl]phenyl}ethyl)piperidin-4-yl]acetic acid]
21 | 0.0019 | CCn1nc(-c2nc(-c3ccc4c(c3)CCC(NCC(=O)O)C4)no2)c2c1CC(C)(C)CC2 (stereo not drawn) [Example 68, 2-(6-(5-(1-Ethyl-6,6-dimethyl-4,5,6,7-tetrahydro-1H-indazol-3-yl)-1,2,4-oxadiazol-3-yl)-1,2,3,4-tetrahydronaphthalen-2-ylamino)ethanoic Acid]
22 | 0.0083 | Cc1cc(-c2noc(-c3noc4c3CCC(C)(C)C4)n2)cc(C)c1CC(O)CO (stereo not drawn) [Example 170, 3-{4-[5-(6,6-dimethyl-4,5,6,7-tetrahydro-1,2-benzisoxazol-3-yl)-1,2,4-oxadiazol-3-yl]-2,6-dimethylphenyl}propane-1,2-diol]
23 | 0.0073 | Cc1cc(-c2nnc(-c3nn(C)c4c3CCC(C)(C)C4)s2)cc(C)c1OCCN [Example 139, (2-{2,6-dimethyl-4-[5-(1,6,6-trimethyl-4,5,6,7-tetrahydro-1H-indazol-3-yl)-1,3,4-thiadiazol-2-yl]phenoxy}ethyl)amine]
24 | 0.0017 | Cc1cc(-c2noc(-c3noc4c3CCC(C)(C)C4)n2)cc(C)c1CCNCC(=O)O [Example 74]
